Data: US20240158446A1, “CYCLIC COMPOUND HAVING SELECTIVE INHIBITORY ACTION ON KRAS OVER HRAS AND NRAS” (CHUGAI SEIYAKU KABUSHIKI KAISHA, priority 2021, published 2024)
pIC50: −log10 of the molar value. *1 amine or outer side, *2 acyl side, *3 side chain or, on linkers, in order; H or OH if unused. Where a SMILES comes first, the peptide text is derived from it. Bridges are numbered along the chain shown (N, C = ends). [ ]: non-standard residue; d: D form. The star is where a group is joined. hPhe(3,5-F2-4-CF3) = N[C@@H](CCc1cc(F)c(C(F)(F)F)c(F)c1)C(=O)O; NPrPhe(4-CF3) = CCCN[C@@H](Cc1ccc(C(F)(F)F)cc1)C(=O)O; NMeGly(cPent) = CN[C@H](C(=O)O)C1CCCC1; X11 = CCC[C@](C)(N[*:1])C(=O)[*:2]; Nva(3-Et) = CCC(CC)[C@H](N)C(=O)O; αMeF = C[C@](N)(Cc1ccccc1)C(=O)O; NMeD = CN[C@@H](CC(=O)O)C(=O)O; NMeL = CN[C@@H](CC(C)C)C(=O)O; αMeL = CC(C)C[C@](C)(N)C(=O)O; αMeV = CC(C)[C@](C)(N)C(=O)O; αMeS = C[C@](N)(CO)C(=O)O; Morpholide = C1CN(*)CCO1; Ac5c = NC1(C(=O)O)CCCC1; Aze = O=C(O)[C@@H]1CCN1; Sar = CNCC(=O)O; Allyl = C=CC*

What was measured:
[1] = target: GDP-bound HRAS wild-type protein (Homo sapiens, UniProt P01112); assay: Binding to HRAS by surface plasmon resonance (SPR), Single Cycle Kinetics; settings: SPR, GDP-bound HRAS wild-type protein vs GDP-bound KRAS wild-type protein
[2] = target: GDP-bound NRAS wild-type protein (Homo sapiens, UniProt P01111); assay: Binding to NRAS by surface plasmon resonance (SPR), Single Cycle Kinetics; settings: SPR, GDP-bound NRAS wild-type protein vs GDP-bound KRAS wild-type protein
[3] = test system: human lung cancer strain NCI-H441;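 further: cell proliferation inhibition after four days measured by CellTiter-Glo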

GDP-bound NRAS wild-type protein, sequence (P01111 whole entry): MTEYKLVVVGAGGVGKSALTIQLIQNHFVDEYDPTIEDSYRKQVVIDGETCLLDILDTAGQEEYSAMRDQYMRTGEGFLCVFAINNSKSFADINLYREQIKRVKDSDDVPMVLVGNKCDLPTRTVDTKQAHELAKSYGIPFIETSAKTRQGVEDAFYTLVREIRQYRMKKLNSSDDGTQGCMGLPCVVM
GDP-bound HRAS wild-type protein, sequence (P01112 whole entry): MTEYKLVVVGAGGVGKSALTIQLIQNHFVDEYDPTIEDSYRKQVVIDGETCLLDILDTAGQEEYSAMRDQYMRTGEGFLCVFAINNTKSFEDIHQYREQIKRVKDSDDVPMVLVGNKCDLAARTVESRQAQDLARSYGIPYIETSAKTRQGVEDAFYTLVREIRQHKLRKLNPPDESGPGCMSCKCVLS

pIC50 [3] | Compound | HRAS/KRAS (ratio of KD value with respect to HRAS to KD value with respect to KRAS) [1] | NRAS/KRAS (ratio of KD value with respect to NRAS to KD value with respect to KRAS) [2] | HRAS/KRAS (ratio of KD value for HRAS to KD value for KRAS) [1] | NRAS/KRAS (ratio of KD value for NRAS to KD value for KRAS) [2]
6.77 | CCCN1C(=O)CN(C)C(=O)[C@@H]2CCN2C(=O)[C@H]([C@@H](C)CC)NC(=O)[C@H](CC(C)C)N(C)C(=O)C[C@@H](C(=O)N2CCOCC2)N(C)C(=O)[C@H](C2CCCC2)N(C)C(=O)[C@](C)(C(C)C)NC(=O)[C@@H]2CCCN2C(=O)[C@H](CCc2cc(F)c(C(F)(F)F)c(F)c2)NC(=O)CN(C)C(=O)[C@@H]1Cc1ccc(C(F)(F)F)cc1 [PP0773] ([NMeL]I[Aze][Sar][NPrPhe(4-CF3)][Sar][hPhe(3,5-F2-4-CF3)]P[αMeV][NMeGly(cPent)][NMeD]-Morpholide; lactam N-11) | B (a compound having 3 or more and less than 10 is denoted as B) | B (a compound having 3 or more and less than 10 is denoted as B) | – | –
6.38 | CCCN1C(=O)CN(C)C(=O)[C@@H]2CCN2C(=O)[C@H]([C@@H](C)CC)NC(=O)[C@H](CC(C)C)N(C)C(=O)C[C@@H](C(=O)N2CCOCC2)N(C)C(=O)[C@H](C2CCCC2)N(C)C(=O)[C@](C)(CCC)NC(=O)[C@@H]2CCCN2C(=O)[C@H](CCc2cc(F)c(C(F)(F)F)c(F)c2)NC(=O)CN(C)C(=O)[C@@H]1Cc1ccc(C(F)(F)F)cc1 [PP0775] ([NMeL]I[Aze][Sar][NPrPhe(4-CF3)][Sar][hPhe(3,5-F2-4-CF3)]P[X11][NMeGly(cPent)][NMeD]-Morpholide; lactam N-11) | B (a compound having 3 or more and less than 10 is denoted as B) | B (a compound having 3 or more and less than 10 is denoted as B) | – | –
6.23 | CCCN1C(=O)CN(C)C(=O)[C@@H]2CCN2C(=O)[C@H]([C@@H](C)CC)NC(=O)[C@H](CC(C)C)N(C)C(=O)C[C@@H](C(=O)N2CCOCC2)N(C)C(=O)[C@H](C2CCCC2)N(C)C(=O)[C@](C)(CC(C)C)NC(=O)[C@@H]2CCCN2C(=O)[C@H](CCc2cc(F)c(C(F)(F)F)c(F)c2)NC(=O)CN(C)C(=O)[C@@H]1Cc1ccc(C(F)(F)F)cc1 [PP0776] ([NMeL]I[Aze][Sar][NPrPhe(4-CF3)][Sar][hPhe(3,5-F2-4-CF3)]P[αMeL][NMeGly(cPent)][NMeD]-Morpholide; lactam N-11) | B (a compound having 3 or more and less than 10 is denoted as B) | B (a compound having 3 or more and less than 10 is denoted as B) | – | –
6.26 | CCCN1C(=O)CN(C)C(=O)[C@@H]2CCN2C(=O)[C@H]([C@@H](C)CC)NC(=O)[C@H](CC(C)C)N(C)C(=O)C[C@@H](C(=O)N2CCOCC2)N(C)C(=O)[C@H](C2CCCC2)N(C)C(=O)[C@](C)(Cc2ccccc2)NC(=O)[C@@H]2CCCN2C(=O)[C@H](CCc2cc(F)c(C(F)(F)F)c(F)c2)NC(=O)CN(C)C(=O)[C@@H]1Cc1ccc(C(F)(F)F)cc1 [PP0778] ([NMeL]I[Aze][Sar][NPrPhe(4-CF3)][Sar][hPhe(3,5-F2-4-CF3)]P[αMeF][NMeGly(cPent)][NMeD]-Morpholide; lactam N-11) | B (a compound having 3 or more and less than 10 is denoted as B) | B (a compound having 3 or more and less than 10 is denoted as B) | – | –
6.44 | CCCN1C(=O)CN(C)C(=O)[C@@H]2CCN2C(=O)[C@H]([C@@H](C)CC)NC(=O)[C@H](CC(C)C)N(C)C(=O)C[C@@H](C(=O)N2CCOCC2)N(C)C(=O)[C@H](C2CCCC2)N(C)C(=O)[C@](C)(COC)NC(=O)[C@@H]2CCCN2C(=O)[C@H](CCc2cc(F)c(C(F)(F)F)c(F)c2)NC(=O)CN(C)C(=O)[C@@H]1Cc1ccc(C(F)(F)F)cc1 [PP0779] ([NMeL]I[Aze][Sar][NPrPhe(4-CF3)][Sar][hPhe(3,5-F2-4-CF3)]P[αMeS](Me)[NMeGly(cPent)][NMeD]-Morpholide; lactam N-11) | B (a compound having 3 or more and less than 10 is denoted as B) | B (a compound having 3 or more and less than 10 is denoted as B) | – | –
6.28 | C=CCOC[C@]1(C)NC(=O)[C@@H]2CCCN2C(=O)[C@H](CCc2cc(F)c(C(F)(F)F)c(F)c2)NC(=O)CN(C)C(=O)[C@H](Cc2ccc(C(F)(F)F)cc2)N(CCC)C(=O)CN(C)C(=O)[C@@H]2CCN2C(=O)[C@H]([C@@H](C)CC)NC(=O)[C@H](CC(C)C)N(C)C(=O)C[C@@H](C(=O)N2CCOCC2)N(C)C(=O)[C@H](C2CCCC2)N(C)C1=O [PP0780] ([NMeL]I[Aze][Sar][NPrPhe(4-CF3)][Sar][hPhe(3,5-F2-4-CF3)]P[αMeS](Allyl)[NMeGly(cPent)][NMeD]-Morpholide; lactam N-11) | B (a compound having 3 or more and less than 10 is denoted as B) | B (a compound having 3 or more and less than 10 is denoted as B) | – | –
6.49 | CCCN1C(=O)CN(C)C(=O)[C@@H]2CCN2C(=O)[C@H](C(CC)CC)NC(=O)[C@H](CC(C)C)N(C)C(=O)C[C@@H](C(=O)N2CCOCC2)N(C)C(=O)[C@H](C2CCCC2)N(C)C(=O)C2(CCCC2)NC(=O)[C@@H]2CCCN2C(=O)[C@H](CCc2cc(F)c(C(F)(F)F)c(F)c2)NC(=O)CN(C)C(=O)[C@@H]1Cc1ccc(C(F)(F)F)cc1 [PP0785] ([NMeL][Nva(3-Et)][Aze][Sar][NPrPhe(4-CF3)][Sar][hPhe(3,5-F2-4-CF3)]P[Ac5c][NMeGly(cPent)][NMeD]-Morpholide; lactam N-11) | B (a compound having 3 or more and less than 10 is denoted as B) | B (a compound having 3 or more and less than 10 is denoted as B) | – | –
7.12 | CC[C@H](C)[C@@H]1NC(=O)[C@H](CC(C)C)N(C)C(=O)C[C@@H](C(=O)N2CCOCC2)N(C)C(=O)[C@H](C2CCCC2)N(C)C(=O)C2(CCC2)NC(=O)[C@@H]2[C@H]3C[C@H]3CN2C(=O)[C@H](CCc2cc(F)c(C(F)(F)F)c(F)c2)NC(=O)CN(C)C(=O)[C@H](Cc2ccc(C(F)(F)F)cc2)N2CCCCC[C@@H](C2=O)N(C)C(=O)CN(C)C1=O [PP0819] | – | – | B (a compound having 3 or more and less than 10 is denoted as B) | A (a compound having 10 or more and less than 20 is denoted as A)
7.61 | CCO[C@@H]1C[C@H]2C(=O)NC3(CCC3)C(=O)N(C)[C@@H](C3CCCC3)C(=O)N(C)[C@H](C(=O)N3CCOCC3)CC(=O)N(C)[C@@H](COCC(F)(F)F)C(=O)N[C@@H]([C@@H](C)CC)C(=O)N(C)CC(=O)N(C)[C@H]3CCCCCN(C3=O)[C@@H](Cc3ccc(C(F)(F)F)cc3)C(=O)N(C)CC(=O)N[C@@H](CCc3cc(F)c(C(F)(F)F)c(F)c3)C(=O)N2C1 [PP0853] | – | – | B (a compound having 3 or more and less than 10 is denoted as B) | B (a compound having 3 or more and less than 10 is denoted as B)
6.94 | CCO[C@@H]1C[C@H]2C(=O)NC3(CCC3)C(=O)N(C)[C@@H](C3CCCC3)C(=O)N(C)[C@H](C(=O)N3CCOCC3)CC(=O)N(C)[C@@H](Cc3cscn3)C(=O)N[C@@H]([C@@H](C)CC)C(=O)N(C)CC(=O)N(C)[C@H]3CCCCCN(C3=O)[C@@H](Cc3ccc(C(F)(F)F)cc3)C(=O)N(C)CC(=O)N[C@@H](CCc3cc(F)c(C(F)(F)F)c(F)c3)C(=O)N2C1 [PP0855] | – | – | B (a compound having 3 or more and less than 10 is denoted as B) | B (a compound having 3 or more and less than 10 is denoted as B)
7.18 | CCO[C@@H]1C[C@H]2C(=O)NC3(CCC3)C(=O)N(C)[C@@H](C3CCCC3)C(=O)N(C)[C@H](C(=O)N3CCOCC3)CC(=O)N(C)[C@@H](Cc3cccc(F)c3)C(=O)N[C@@H]([C@@H](C)CC)C(=O)N(C)CC(=O)N(C)[C@H]3CCCCCN(C3=O)[C@@H](Cc3ccc(C(F)(F)F)cc3)C(=O)N(C)CC(=O)N[C@@H](CCc3cc(F)c(C(F)(F)F)c(F)c3)C(=O)N2C1 [PP0856] | – | – | B (a compound having 3 or more and less than 10 is denoted as B) | B (a compound having 3 or more and less than 10 is denoted as B)
7.59 | CCO[C@@H]1C[C@H]2C(=O)NC3(CCC3)C(=O)N(C)[C@@H](C3CCCC3)C(=O)N(C)[C@H](C(=O)N(C)C)CC(=O)N(C)[C@@H](CC)C(=O)N[C@@H]([C@@H](C)CC)C(=O)N(C)CC(=O)N(C)[C@H]3CCCCN(C3=O)[C@@H](Cc3ccc(C(F)(F)F)cc3)C(=O)N(C)CC(=O)N[C@@H](CCc3ccc4ccsc4c3)C(=O)N2C1 [PP0888] | – | – | B (a compound having 3 or more and less than 10 is denoted as B) | C (A compound having a KD ratio of 0.1 or more and less than 3 is denoted as C)
6.03 | CCCN1C(=O)CN(C)C(=O)CN(C)C(=O)[C@H]([C@@H](C)CC)NC(=O)[C@@H]2COCCCC[C@@](C)(NC(=O)[C@@H]3C[C@@H](OCC)CN3C(=O)[C@H](CCc3cc(F)c(C(F)(F)F)c(F)c3)NC(=O)CN(C)C(=O)[C@@H]1Cc1ccc(C(F)(F)F)cc1)C(=O)N(C)[C@@H](C1CCCC1)C(=O)N(C)[C@H](C(=O)N1CCOCC1)CC(=O)N2C [PP0899] | – | – | B (a compound having 3 or more and less than 10 is denoted as B) | A (a compound having 10 or more and less than 20 is denoted as A)
